In US20240261288A1, “COMBINATION OF A 3-(IMIDAZOL-4-YL)-4-(AMINO)-BENZENES[…] INHIBITOR WITH AN EGFR INHIBITOR AND/OR MEK INHIBITOR FOR USE IN THE TREATMENT OF LUNG CANCER” (lkena Oncology, Inc., priority 2021, published 2024):

Key:
[1] = tested on: NCI-H1975 cells (EGFR mutant NSCLC); experiment: Apoptosis induction, caspase-3/7 activation (Incucyte live-cell imaging); type: cell-based, human; details: triple combination of T-A-32, osimertinib, and trametinib, compared with the 3 single agent treatments and the dual combination of osimertinib and trametinib
Source text: (§1) This study determined the ability of T-A-32 to enhance apoptosis in combination with osimertinib and trametinib in epidermal growth factor receptor (EGFR) mutant cell lines, and in combination with trametinib in Kirsten rat sarcoma viral oncogene (KRAS) or v raf murine sarcoma viral oncogene homolog B (BRAF) mutant cancer cell lines.
(§2) Three EGFR mutant cell lines (HCC4006, HCC827, and NCI-H1975), 5 KRAS mutant cell lines (A549, HCT116, Capan-2, Calu-1, and LoVo), and 1 BRAF mutant cell line (A2058) from multiple cancer indications were tested. The EGFR mutant cell lines were treated with single agent T-A-32, osimertinib (an EGFR inhibitor), or trametinib (a mitogen-activated protein kinase kinase [MEK] inhibitor); a dual combination of osimertinib and trametinib; or a triple combination of T-A-32, osimertinib, and trametinib in a 96-well plate format. The KRAS and BRAF mutant cell lines were treated with single agent T-A-32 or trametinib, or a dual combination of T-A-32 and trametinib in a 96-well plate format. Apoptosis induction was assessed by monitoring the activation of caspase-3/7 using a probe that generates bright green fluorescence upon DEVD peptide cleavage by activated caspase-3/7 as an early indicator of apoptosis every 2 hours for approximately 96 hours.
(§3) All cell lines were cultured in the recommended medium supplemented with 10% fetal bovine serum (FBS) at 37° C. in a humidified atmosphere containing 5% CO2 until they were at least 80% confluent as follows: • HCC4006, HCC827, and NCI-H1975 cells in Roswell Park Memorial Institute 1640+10% FBS • A2058 cells in Dulbecco's Modified Eagle Medium+10% FBS • HCT-116, Capan-2, and Calu-1 cells in McCoy's 5A+10% FBS • LoVo and A549 cells in F 12K+10% FBS
(§4) Cells were trypsinized, counted by an automated cell counter, and added to all wells of a 96-well plate at 3000 cells/well in 100 μL of the appropriate medium (1 plate for each cell line). The next day, compounds were diluted in DMSO to 1000× concentration. CELLEVENT Caspase-3/7 Green READYPROBE Reagent was prepared as per manufacturer's instructions by adding 1 drop of READYPROBE reagent into 1 mL of the appropriate medium. Compounds were diluted in the READYPROBE/medium mixture to 3× concentration and 50 μL were added to the cells. The plates were subsequently scanned every 2 hours using an Incucyte S3 Live-Cell Analysis System (Sartorius) for a total of 72 to 136 hours depending on the cell line. Plates were maintained at 37° C. in a humidified atmosphere containing 5% CO2 over the course of experiment.

[2] = tested on: HCT-116 cells (KRAS mutant); experiment: as above; type: cell-based, human; details: T-A-32 in combination with trametinib, compared with either single agent treatment alone
Source text: as §1, §2, §3, §4

LoVo cells (KRAS mutant) = experiment: as above; type: cell-based, human; details: T-A-32 in combination with trametinib, compared with either single agent treatment alone
Source text: as §1, §2, §3, §4

A549 cells (KRAS mutant) = experiment: as above; type: cell-based, human; details: T-A-32 in combination with trametinib, compared with either single agent treatment alone
Source text: as §1, §2, §3, §4

[3] = tested on: H1975 human non-small cell lung xenografts; experiment: H1975 EGFR mutant lung cancer xenograft mouse model, tumor growth; type: in vivo, female Nu/Nu mice; details: for TGI (tumor growth inhibition): Day 18, vs vehicle control, p<0.001
Experimental: This study determined the in vivo antitumor activity of T-A-32 administered in combination with osimertinib, an EGFR inhibitor and trametinib, a MEK inhibitor. This combination was tested in immunodeficient nude mice (Nu/Nu) bearing H1975 human non-small cell lung xenografts. H1975 was chosen as a xenograft model because H1975 harbors EGFR T790M/[…]L858R mutations. T970M is well known point mutation for osimertinib resistance and L858R is also known EGFR activation mutation.
Six- to 9-week-old female Nu/Nu mice were inoculated SC with 2×10^6 H1975 human non-small cell lung tumor cells in the right flank. Tumor growth was monitored twice per week using vernier calipers and the mean tumor volume (MTV) was calculated. When the MTV reached approximately 177 mm^3, animals were randomized into treatment groups (n=10/group) and dosed orally (PO) with either vehicle control (5% DMSO+95% PEG 400 (Vehicle 1)+0.5% hydroxypropyl methyl cellulose and 0.2% Tween-80 (Vehicle 2)+1% Tween 80 (Vehicle 3)) or T-A-32 at 75 mg/kg, osimertinib at 2.5 mg/kg, or trametinib at 1 mg/kg QD for 18 days.
(§5) Treatments started on Day 0, tumor size and body weight were measured twice per week, and the study was terminated when the vehicle control tumors reached a mean of approximately 1600 mm^3. Percent TGI was calculated on Day 18 when the control MTV reached the maximum allowable tumor volume. The mean maximum body weight change was determined for each group.

[4] = tested on: HCT-116 human colorectal carcinoma xenografts; experiment: HCT116 KRAS G13D mutant colorectal carcinoma xenograft mouse model, tumor growth; type: in vivo, female Nu/Nu mice; details: T-A-32 PO 75 mg/kg QD in combination with trametinib 0.5 mg/kg; Day 14; vs vehicle control; p<0.0001
Experimental: (§6) This study determined the in vivo antitumor activity of T-A-32 administered in combination with trametinib, a MEK inhibitor. This combination was tested in immunodeficient nude mice (Nu/Nu) bearing HCT-116 human colorectal carcinoma xenografts. HCT116 was chosen as a xenograft model because HCT116 harbors a the KRAS G13D mutation.
(§7) Six- to eight-week-old female Nu/Nu mice were inoculated subcutaneously with 1×10^6 HCT116 human colorectal carcinoma tumor cells in the right flank. Tumor growth was monitored twice per week using vernier calipers and the mean tumor volume (MTV) was calculated. When the MTV reached approximately 150-200 mm^3, approximately ten (10) days after cell inoculation, animals were randomized into treatment groups (n=10/group) and dosed orally (PO) with either vehicle control (5% DMSO+95% PEG 400 (Vehicle 1)+0.5% hydroxypropyl methyl cellulose and 0.2% Tween-80 (Vehicle 2)) or T-A-32 at 75 mg/kg, or trametinib at 0.5 mg/kg once per day (PO) for fourteen (14) days.
as §5, with “Tumor” for “Treatments started on Day 0, tumor”, “twice,” for “twice per week,”, “2000” for “1600”, “14” for “18”

[5] = tested on: LoVo human colorectal adenocarcinoma xenografts; experiment: LoVo KRAS G12D mutant colorectal adenocarcinoma xenograft mouse model, tumor growth; type: in vivo, female Nu/Nu mice; details: T-A-32 PO 75 mg/kg QD in combination with trametinib 1.0 mg/kg; Day 28; vs vehicle control; p<0.0001
Experimental: as §6, with “LoVo” for “HCT-116”, “adenocarcinoma” for “carcinoma”, “LoVo” for “HCT116”, “LoVo cells harbor” for “HCT116 harbors a”, “G12D” for “G13D”
as §7, with “with 5×10^6 LoVo” for “with 1×10^6 HCT116”, “colorectal adenocarcinoma” for “colorectal carcinoma tumor”, “approximately eight (8)” for “approximately ten (10)”, “at 1.0” for “at 0.5”, “for twenty-eight (28)” for “for fourteen (14)”
Tumor size and body weight were measured twice per week, and all treatments ended on day 28. Percent TGI was calculated on Day 28 when the control MTV reached the maximum allowable tumor volume. The mean maximum body weight change was determined for each group.

[6] = tested on: A549 human lung cancer xenografts; experiment: A549 KRAS G12S mutant lung cancer xenograft mouse model, tumor growth; type: in vivo, female Nu/Nu mice; details: T-A-32 PO 75 mg/kg QD in combination with trametinib 1.0 mg/kg; Day 25; vs vehicle control; p<0.0001
Experimental: as §6, with “A549” for “HCT-116”, “lung cancer” for “colorectal carcinoma”, “A549” for “HCT116”, “A549 cells harbor” for “HCT116 harbors a”, “G12S” for “G13D”
as §7, with “with 5×10^6 A549” for “with 1×10^6 HCT116”, “human lung cancer” for “human colorectal carcinoma tumor”, “approximately eight (8)” for “approximately ten (10)”, “groups (n=8/group)” for “groups (n=10/group)”, “at 1.0” for “at 0.5”, “for twenty-five (25)” for “for fourteen (14)”
Tumor size and body weight were measured twice per week, and all treatments ended on day 25. Percent TGI was calculated on Day 25 when the control MTV reached the maximum allowable tumor volume. The mean maximum body weight change was determined for each group.

[7] = tested on: HCC4006 cells (EGFR mutant NSCLC); experiment: Apoptosis induction, caspase-3/7 activation (Incucyte live-cell imaging); type: cell-based; details: triple combination of T-A-32, osimertinib, and trametinib, compared with the 3 single agent treatments and the dual combination of osimertinib and trametinib
Source text: as §1, §2, §3, §4

[8] = tested on: Capan 2 cells (KRAS mutant); experiment: as above; type: cell-based; details: T-A-32 in combination with trametinib, compared with either single agent treatment alone
Source text: as §1, §2, §3, §4

[9] = tested on: A2058 cells (BRAF mutant); experiment: as above; type: cell-based; details: T-A-32 in combination with trametinib, compared with either single agent treatment alone
Source text: as §1, §2, §3, §4

[10] = tested on: HCC827 cells (EGFR mutant NSCLC); experiment: as above; type: cell-based; details: triple combination of T-A-32, osimertinib, and trametinib, compared with the 3 single agent treatments and the dual combination of osimertinib and trametinib
Source text: as §1, §2, §3, §4

[11] = tested on: Calu 1 cells (KRAS mutant); experiment: as above; type: cell-based; details: T-A-32 in combination with trametinib, compared with either single agent treatment alone
Source text: as §1, §2, §3, §4

Row | SMILES | apoptosis (caspase-3/7 activation) [1] | apoptosis (caspase-3/7 activation) [2] | apoptosis (caspase-3/7 activation) (LoVo cells (KRAS mutant)) | apoptosis (caspase-3/7 activation) (A549 cells (KRAS mutant)) | TGI (tumor growth inhibition) ([3]; T-A-32 PO 75 mg/kg QD in combination with osimertinib (2.5 mg/kg)) [%] | TGI (tumor growth inhibition) ([3]; T-A-32 in combination with both trametinib and osimertinib, PO QD) [%] | tumor regression ([3]; triple combination of T-A-32, osimertinib, and trametinib, H1975 xenograft) | TGI (tumor growth inhibition) [4] [%] | TGI (tumor growth inhibition) [5] [%] | TGI (tumor growth inhibition) [6] [%] | apoptosis (caspase-3/7 activation) [7] | apoptosis (caspase-3/7 activation) [8] | apoptosis (caspase-3/7 activation) [9] | apoptosis (caspase-3/7 activation) [10] | apoptosis (caspase-3/7 activation) [11] | TGI (tumor growth inhibition) ([3]; trametinib 1 mg/kg in combination with osimertinib 2.5 mg/kg, PO QD) [%]
1 | CNS(=O)(=O)c1ccc(NCc2ccc(C(F)(F)F)cc2)c(-c2cn(C)cn2)c1 [T-A-32, N-methyl-3-(1-methyl-1H-imidazol-4-yl)-4-((4-(trifluoromethyl)benzyl)amino)benzenesulfonamide] | enhanced apoptosis | enhanced apoptosis | enhanced apoptosis | enhanced apoptosis | 88 | 99 | complete regressions | 78 | 75 | 83 | enhanced apoptosis | enhanced apoptosis | enhanced apoptosis | enhanced apoptosis | enhanced apoptosis | –
2 | CC(=O)Nc1cccc(-n2c(=O)n(C3CC3)c(=O)c3c(Nc4ccc(I)cc4F)n(C)c(=O)c(C)c32)c1 [trametinib, reference compound] | – | – | – | – | – | – | – | – | – | – | – | – | – | – | – | 71
